In patent US20240058310A1, “METHODS OF TREATING DISEASES AND DISORDERS ASSOCIATED WITH CALCIUM ION SIGNALING” (Temple University-Of the Commonwealth System of Higher …, priority 2022, published 2024):

Experiments:
melanoma metastasis = settings: mice; literature reports; cited from earlier work
[1] = system: SOCE in B16N murine melanoma cells; test: SOCE measurement (Fura2, Tg then Ca2+ re-addition) in B16N cells; assay type: cell-based; settings: B16N control, UV2, UV5, O1C44; 2 μM IA65
Protocol: (§1) UV Exposure—Cells were plated on glass coverslips for 24 hours before changing to PBS. Lids were replaced with a thin layer of taut plastic wrap before irradiating with a broadband UV spectrum containing 35% UVA and 65% UVB (with peak emission at 313 nm in the UVB range (De Fabo, E. C., et al, 2004, Cancer Research, 64:6372-6376)). Cells received a total UV dose of 175 J/m^2 over 90 seconds at a rate of 1.94 W/m^2. Approximately 80% of the melanoma cells survive this exposure. Cells were passaged 1:10 every 3 days and cultured under growth optimal conditions for the indicated time period (see Cell Culture below) before subsequent experimentation.
(§2) SOCE Measurement—Cells grown on glass coverslips were incubated in a cation-safe buffer (107 mM NaCl, 7.2 mM KCl, 1.2 mM MgCl2, 11.5 mM Glucose, 20 mM HEPES-NaOH, 1 mM CaCl2, pH 7.2) and loaded with Fura2-acetoxymethylester (Fura2-AM; 2 μM) for 30 min at 24° C. as previously described (Go, C. K., et al, 2019, Science Signaling, 12; Hooper, R., et al., 2015, Molecular and Cellular Biology, 35:2790-2798). Cells were washed and allowed to de-esterify for a minimum of 30 min at 24° C. […] Ca^2+ measurements were taken using a Leica DMI 6000B fluorescence microscope controlled by Slidebook software (Intelligent Imaging Innovations, Denver, CO). […]

[2] = system: WM983 human melanoma cells; test: Scratch (wound) migration assay, WM983 cells; assay type: cell-based; settings: 2 μM IA65, 0-, 10-, 20-hour
Protocol: Migration Assay—Cells were plated on glass coverslips (Ibidi, Fitchburg, WI) overnight to form a complete monolayer before “wounding” with a p20 pipette tip. Coverslips were placed in an incubation chamber (37° C.; 5% CO2) and monitored by confocal microscopy (Leica SP8 Laser Scanning Microscope). Z-stack brightfield images were obtained every 20 minutes for 20 hours; the % of the wound that was refilled over time was calculated using ImageJ.

[3] = system: B16N murine melanoma cells; test: Matrigel transwell invasion assay, B16N cells; assay type: cell-based; design: invasion (Matrigel transwell): dose or concentration left out as unconfirmed
Protocol: (§3) Transwell Migration Assays—Transwell migration assays were performed as previously described (Hooper, R., et al., 2015, Molecular & Cellular Biology, 35:2790-2798). Briefly, Matrigel® transwell chambers (Corning, Bedford, MA) were hydrated with serum-free OptiMEM for 2 hours (37° C., 5% CO2) prior to the addition of 2,500 cells/well. Growth optimal media was placed on the bottom of the chamber prior to incubation (20 hours; 37° C., 5% CO2). After incubation, media was removed, and edges were cleaned before methanol fixation and staining with crystal violet (0.5%, 2 min). Images were taken by EVOS cell imager and quantified on ImageJ.

[4] = system: WM983 human melanoma cells; test: Matrigel transwell invasion assay, WM983 cells; assay type: cell-based; design: invasion (Matrigel transwell): dose or concentration left out as unconfirmed
Protocol: as §3

[5] = system: SOCE in WM983 human melanoma cells; test: SOCE measurement (Fura2, Tg then Ca2+ re-addition) in WM983 cells; assay type: cell-based
Protocol: as §1
(§4) SOCE Measurement—Cells grown on glass coverslips were incubated in a cation-safe buffer (107 mM NaCl, 7.2 mM KCl, 1.2 mM MgCl2, 11.5 mM Glucose, 20 mM HEPES-NaOH, 1 mM CaCl2, pH 7.2) and loaded with Fura2-acetoxymethylester (Fura2-AM; 2 μM) for 30 min at 24° C. as previously described (Go, C. K., et al, 2019, Science Signaling, 12; Hooper, R., et al., 2015, Molecular and Cellular Biology, 35:2790-2798). Cells were washed and allowed to de-esterify for a minimum of 30 min at 24° C. Following de-esterification, cells were treated with 2 μM Thapsigargin (SERCA inhibitor) for 10 minutes prior to imaging. Ca^2+ measurements were taken using a Leica DMI 6000B fluorescence microscope controlled by Slidebook software (Intelligent Imaging Innovations, Denver, CO). Fluorescence emission at 505 nm was monitored in response to excitation at alternating 340 nm and 380 nm wavelengths at a frequency of 0.67 Hz; intracellular Ca^2+ measurements are shown at 340/380 nm ratios obtained from groups (2-45 for patient samples, 35-45 for established cell lines) of single cells.

[6] = system: melanoma cells (WM983, B16N); test: Viability assay (Trypan Blue); assay type: cell-based; settings: 2 μM IA65 overnight, control, UV2, UV5 cells
Protocol: Viability Assays—500,000 cells were plated in 24 well plates overnight in the absence or presence of 2 μM IA65. Cells were then trypsinized with 0.25% Trypsin-EDTA for 10 minutes at 37° C. Following, cells were treated with 0.4% Trypan Blue and placed in a Bio-Rad slidereader and the number of stained vs. unstained cells compared.

[7] = system: patient melanoma surgical explant cells; test: Matrigel transwell invasion assay, patient explant cells; assay type: cell-based, human; settings: TAK475 10 μM, compactin 2 μM, IA65 2 μM or OSMI1 40 μM; 20 hours
Protocol: as §3
Isolation of Cells from Patient Surgical Explants—Tissue was incubated in DMEM containing Liberase® TL (Roche Applied Science; 37° C., 30 min). Following incubation, tissue was cut using a sharp razor and dissociated through 50 μM Medicon screens (Becton Dickinson Biosciences, San Jose, CA; 2 min). Tissue samples were resuspended in DFD media (DMEM, 20% FBS; 500 ug/ml DNAse I, Sigma, St. Louis, MO) and passed through an 18-gauge syringe to break up clumps of cells before filtration (70 μm, Corning, Glendale, AZ, centrifugation and resuspension in DMEM (2% FBS; 1% Gentamycin) for 3 days before use.

[8] = system: SOCE in patient melanoma surgical explant cells; test: SOCE measurement in cells from patient surgical explants; assay type: cell-based, human; settings: patient explant cells treated with drug in presence of Tg, 15 minutes
Protocol: as §4
Isolation of Cells from Patient Surgical Explants—Tissue was incubated in DMEM containing Liberase® TL (Roche Applied Science; 37° C., 30 min). Following incubation, tissue was cut using a sharp razor and dissociated through 50 μM Medicon screens (Becton Dickinson Biosciences, San Jose, CA; 2 min). […]

[9] = system: SOCE in UACC257 human melanoma cells; test: SOCE measurement (Fura2, Tg then Ca2+ re-addition) in UACC257 cells; assay type: cell-based; settings: non-SOCE suppressed UACC257 UV5 cells; overnight treatment
Protocol: as §1, §2

O=C(O)Cc1cccc(OCCCN(Cc2cccc(C(F)(F)F)c2Cl)CC(c2ccccc2)c2ccccc2)c1 [GW3965]
melanoma metastasis (melanoma metastasis): suppressed

O=C(O)c1ccc(Nc2nc(C(F)(F)F)c(-c3ccccc3)s2)cc1 [IA65, 4-((5-Phenyl-4-(trifluoromethyl)thiazol-2-yl)amino)benzoic acid]
SOCE (reversal of SOCE suppression) [1]: reversal of SOCE suppression
UV-induced enhanced cell migration (scratch) [2]: did not have UV-induced enhanced cell migration
invasion through Matrigel transwell ([3]; B16N control, UV2, UV5, O1C44, 2 μM IA65): inhibition of invasiveness
invasion through Matrigel in a transwell assay ([4]; WM983 control, UV2, UV5, 2 μM IA65, 20 hours): failed to invade
UV-induced SOCE suppression ([5]; UV2 and UV5 WM983 cells, 2 μM IA65, 15 minutes): strikingly reversed UV-induced SOCE suppression
SOCE ([5]; untreated (non-irradiated) WM983 cells, 2 μM IA65, 15 minutes): no effect
cell viability [6]: no effect
invasion in vitro of patient cells [7]: diminished invasion
change in SOCE in patient samples [8]: No significant effect

COc1ccccc1[C@@H](NS(=O)(=O)c1ccc2[nH]c(=O)ccc2c1)C(=O)N(Cc1ccco1)Cc1cccs1 [OSMI1]
invasion (Matrigel transwell) ([3]; SOCE-suppressed B16N cells, siRNA targeting OGT): reduced invasion
invasion (Matrigel transwell) ([4]; SOCE-suppressed WM983 cells, siRNA targeting OGT): reduced invasion
invasion in vitro of patient cells [7]: diminished invasion

O=S(=O)(c1ccccc1)N(CC(F)(F)F)c1ccc(C(O)(C(F)(F)F)C(F)(F)F)cc1 [T0901317]
melanoma metastasis (melanoma metastasis): suppressed

COc1cccc([C@H]2O[C@H](CC(=O)N3CCC(CC(=O)O)CC3)C(=O)N(CC(C)(C)COC(C)=O)c3ccc(Cl)cc32)c1OC [TAK475]
SOCE [9]: no change
UV-induced increases in melanoma invasiveness through Matrigel ([4]; UV5 WM983 cells, transwell, 20 hours): abrogated UV-induced increases in melanoma invasiveness
invasiveness through Matrigel ([4]; untreated (control) WM983 cells): no effect on invasiveness
SOCE ([5]; UV5 WM983 cells, 24 hr treatment): markedly enhanced
SOCE ([5]; untreated WM983 cells, cholesterol synthesis inhibitor overnight): neither agent significantly affected SOCE
invasion in vitro of patient cells [7]: diminished invasion
change in SOCE in patient samples [8]: significantly enhanced SOCE
